Results as given in patent publication US20020010154A1, “Compositions comprising cyclodextrin” (priority 2000, published 2002).
Where a name gives a salt, the structure may show the parent alone.

How the values were obtained:
[1] = CD interaction of perfume components; format: physicochemical; design: key: cyclodextrin-compatible perfume materials (i.e. having weak CD interaction); cyclodextrin-incompatible enduring (hydrophobic) perfume materials (i.e. having significant or strong CD interaction); cyclodextrin-incompatible enduring (hydrophobic) perfume materials (i.e. having significant or strong CD interaction); settings: perfume component with cyclodextrin
Text: The following table illustrates the molecular weight property of some of the cyclodextrin-incompatible enduring (hydrophobic) perfume materials (i.e. having significant or strong CD interaction) versus cyclodextrin-compatible perfume materials (i.e. having weak CD interaction).

[2] = Complexation constant with cyclodextrin, spectral displacement method with phenolphthalein; format: physicochemical; settings: no unit in table, complexation constants in M^−1
Text: A spectral displacement method with phenolphthalein is used to determine the complexation constant between cyclodextrin and a given material, especially for surfactants. This method of determining complexation constants with cyclodextrins is described in detail in the following references, which are hereby incorporated herein by reference: Sasaki, K. J., Christian, S. D., and Tucker, E. E., “Study of the Stability of 1:1 Complexes Between Aliphatic Alcohols and b-Cyclodextrins in Aqueous Solution,” Fluid Phase Equilibria, Vol. 49, (Amsterdam, Elsevier Science Publishers, 1989), pp. 281-89. Further information regarding spectral displacement methods can be found in other references, e.g. in Wilson, L. D., Siddall, S. R., and Verrall R. E., “A Spectral Displacement Study of the Binding Constants of Cyclodextrin-Hydrocarbon and—Fluorocarbon Surfactant Inclusion Complexes,” Canadian Journal of Chemistry, Vol. 75, (NRC Canada 1997), pp. 927-933, which is incorporated by reference herein.
The test method is based on the fact that phenolphthalein will complex with cyclodextrin and in complexed form is colorless. However, it has a strong color at pH 10.5 when in non-complexed form. Other, cyclodextrin-incompatible, materials themselves complex with the cyclodextrin and prevent the phenolphthalein from doing so. Thus the higher the complexation constant of the other component with cyclodextrin, the more non-complexed phenolphthalein will be present and the stronger the observed color.
The complexation constant of a given material with cyclodextrin is obtained by an absorbance measurement in the visible region at 550 nm that is performed with a spectrophotometer at room temperature. All solutions are prepared in 4.0×10^−3 mol/l Na2CO3 solution to maintain a constant pH. The concentration of phenolphthalein is kept constant at 3.0×10^−5 mol/l. Cyclodextrin concentration and surfactant concentration are varied. Here, optimum parameter values for absorption coefficient of phenolphthalein at 550 nm is 33,000 M^−1 cm^−1, and the complexation constants of phenolphthalein with cyclodextrin and cyclodextrin derivatives are preliminary obtained. […] Complexation constants of cyclodextrin-compatible and/or cyclodextrin-incompatible materials are determined with using the free, uncomplexed phenolphthalein concentration obtained by absorbance at 550 nm.

[3] = cited from earlier work
[4] = Complexation constant of phenolphthalein with beta-cyclodextrin (absorbance at 550 nm); format: physicochemical; settings: room temperature, 4.0×10^−3 mol/l Na2CO3, pH 10.5
Text: A spectral displacement method with phenolphthalein is used to determine the complexation constant between cyclodextrin and a given material, especially for surfactants. This method of determining complexation constants with cyclodextrins is described in detail in the following references, which are hereby incorporated herein by reference: Sasaki, K. J., Christian, S. D., and Tucker, E. E., “Study of the Stability of 1:1 Complexes Between Aliphatic Alcohols and b-Cyclodextrins in Aqueous Solution,” Fluid Phase Equilibria, Vol. 49, (Amsterdam, Elsevier Science Publishers, 1989), pp. 281-89. Further information regarding spectral displacement methods can be found in other references, e.g. in Wilson, L. D., Siddall, S. R., and Verrall R. E., “A Spectral Displacement Study of the Binding Constants of Cyclodextrin-Hydrocarbon and—Fluorocarbon Surfactant Inclusion Complexes,” Canadian Journal of Chemistry, Vol. 75, (NRC Canada 1997), pp. 927-933, which is incorporated by reference herein. […]
The complexation constant of a given material with cyclodextrin is obtained by an absorbance measurement in the visible region at 550 nm that is performed with a spectrophotometer at room temperature. […] Complexation constants of cyclodextrin-compatible and/or cyclodextrin-incompatible materials are determined with using the free, uncomplexed phenolphthalein concentration obtained by absorbance at 550 nm.

CC(C=O)Cc1ccc(C(C)C)cc1 (centres unmarked) [Cymal]
CD interaction [1]: strong

CCOC(=O)c1ccccc1C(=O)OCC [Diethyl Phthalate]
CD interaction [1]: weak

CC(=O)OC1CC2CC1C1CC=CC21 (centres unmarked) [Flor Acetate]
CD interaction [1]: strong

CCC(=O)OC1CC2CC1C1CC=CC21 (centres unmarked) [Frutene]
CD interaction [1]: strong

CC1COCc2cc3c(cc21)C(C)(C)C(C)C3(C)C (centres unmarked) [Galaxolide]
CD interaction [1]: weak

CCCCCCOC(=O)c1ccccc1O [Hexyl Salicylate]
CD interaction [1]: weak

CCCCCCC(C=O)=Cc1ccccc1 [Hexyl cinnamic Aldehyde]
CD interaction [1]: weak

CC(=O)C1(C)CC2=C(CCCC2(C)C)CC1C (centres unmarked) [Iso-E Super]
CD interaction [1]: weak

CCCCCCCCCCCCCC(=O)OC(C)C [Iso-propyl Myristate]
CD interaction [1]: weak

CC(=O)C(C)=C(C)C(C)C(C)(C)C (centres unmarked) [Koavone]
CD interaction [1]: strong

CC(C=O)Cc1ccc(C(C)(C)C)cc1 (centres unmarked) [Lilial, p-t-bucinal]
CD interaction [1]: strong

CC(C)(O)CCCC1=CCC(C=O)CC1 (centres unmarked) [Lyral]
CD interaction [1]: weak

CCCCCC1C(=O)CCC1CC(=O)OC (centres unmarked) [Methyl Dihydro Jasmonate]
CD interaction [1]: weak

O=C(Cc1ccccc1)OCCc1ccccc1 [Phenyl-Ethyl-Phenyl Acetate]
CD interaction [1]: weak

CCCCCCCCCCCCOS(=O)(=O)[O-].[Na+] [Sodium dodecyl sulfate]
Complexation Constant (K) [2]: about 22000

CCCCCCCCCCCC(=O)[O-].[Na+] [Sodium laurate]
Complexation Constant (K) [2]: about 16000

CC(=O)OC(C)(C)C1CC=C(C)CC1 (centres unmarked) [Terpinyl Acetate]
CD interaction [1]: significant

CCC(C)(O)CCCC(C)C (centres unmarked) [Tetrahydrolinalol]
CD interaction [1]: significant

CC(=O)OC1CCC(C(C)(C)C)CC1 (centres unmarked) [Vertenex, para-tert-butylcyclohexyl acetate]
CD interaction [1]: strong

CC(=O)/C=C/C1C(C)=CCCC1(C)C (centres unmarked) [a-ionone]
CD interaction [1]: strong

[H]/N=C(\N/C(=N/[H])NCCCCCCNC(=N)NC(=N)Nc1ccc(Cl)cc1)Nc1ccc(Cl)cc1 [diacetate salt, 1,1′-hexamethylene bis(5-(p-chlorophenyl)biguanide)]
solubility in water [3]: about 1.8%

[H]/N=C(\N/C(=N/[H])NCCCCCCNC(=N)NC(=N)Nc1ccc(Cl)cc1)Nc1ccc(Cl)cc1 [digluconate salt, 1,1′-hexamethylene bis(5-(p-chlorophenyl)biguanide)]
solubility in water [3]: about 70%

O=C1OC(c2ccc(O)cc2)(c2ccc(O)cc2)c2ccccc21 [phenolphthalein]
complexation constant of phenolphthalein with beta-cyclodextrin [4]: about 21,000 M^−1

Lauramine oxide
Complexation Constant (K) [2]: about 7500

Laureth-6
Complexation Constant (K) [2]: about 10000

a-Me Ionone
CD interaction [1]: strong
